# Measured values published in patent US10300071B2, “Compositions and methods for inhibition of mycobacteria” (priority 2014, dated 2019).
# Read-outs that look alike come from different tables or passages of the source.
# What was measured:
# Mtb AccD6 = Mtb AccD6 (Mycobacterium tuberculosis, UniProt P9WQH5); assay: biochemical; assay type: biochemical; details: for IC50: 300 μM malonyl-CoA, inhibitor 10 μM to 2000 μM
# Mtb strain mc^2-7000 = assay: microbe, parasite or virus in culture; assay type: cell-based, Mycobacterium tuberculosis; details: 6 days incubation at 37° C., resazurin, read on the 7th day
# [1] = Mycobacterium tuberculosis, 144 h, read-out: MIC
# Mtb AccD6, sequence (P9WQH5 whole entry, looked up): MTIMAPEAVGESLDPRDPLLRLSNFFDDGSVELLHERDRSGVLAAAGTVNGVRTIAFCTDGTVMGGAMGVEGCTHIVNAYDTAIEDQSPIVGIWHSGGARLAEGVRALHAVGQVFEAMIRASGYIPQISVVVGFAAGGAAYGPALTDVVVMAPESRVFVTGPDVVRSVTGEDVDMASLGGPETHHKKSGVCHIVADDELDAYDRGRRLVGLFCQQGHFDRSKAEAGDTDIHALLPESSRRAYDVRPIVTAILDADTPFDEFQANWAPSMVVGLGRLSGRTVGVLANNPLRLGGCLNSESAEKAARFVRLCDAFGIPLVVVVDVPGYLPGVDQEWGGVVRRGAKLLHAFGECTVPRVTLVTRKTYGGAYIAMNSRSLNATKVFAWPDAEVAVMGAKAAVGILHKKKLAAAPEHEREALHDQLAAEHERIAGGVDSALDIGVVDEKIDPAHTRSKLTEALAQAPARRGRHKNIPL
SMILES,"concentrations at which not toxic, s. cerevisiae cytotoxicity (S. cerevisiae) [µM]",IC50 (Mtb AccD6; read-out: IC50) [µM],"concentrations at which not toxic, human fibroblast cytotoxicity (human fibroblast) [µM]",MIC (Mtb strain mc^2-7000; [1]) [µM],MIC (Mtb strain mc^2-7000),IC50 (Mtb AccD6),inhibition at 20 µM (Mtb AccD6; read-out: inhibition at 20 uM) [%]
"CC(C(=O)NC(CO)CO)c1ccc(Oc2nc3ccc(Cl)cc3s2)cc1 (stereo not shown) [NZ-371, 2-{4-[(6-chloro-1,3-benzothiazol-2-yl)oxy]phenyl}-N-(1,3-dihydroxypropan-2-yl)propanamide]",≥ 100,0.86,≥ 100,20,,,
"CNC(=O)Cc1ccc(O)cc1Oc1nc2ccc(Cl)cc2s1 [NZ-390, 2-{2-[(6-chloro-1,3-benzothiazol-2-yl)oxy]-4-hydroxyphenyl}-N-methylacetamide]",≥ 100,15.4,≥ 100,,Not Active,,
"CC(C)(Oc1ccc(Oc2cnc3cc(Cl)ccc3n2)cc1)C(=O)O [NZ-315, 2-{4-[(6-chloroquinoxalin-2-yl)oxy]phenoxy}-2-methylpropanoic acid]",≥ 100,1.7,≥ 100,25,,,
"O=C(O)COc1ccc(Oc2nc3ccc(F)cc3s2)cc1 [NZ-304, 2-{4-[(6-fluoro-1,3-benzothiazol-2-yl)oxy]phenoxy}acetic acid]",≥ 100,3.4,≥ 100,25,,,
"CCNC(=O)COc1ccc(Oc2cnc3cc(Cl)ccc3n2)cc1 [NZ-306, 2-{4-[(6-chloroquinoxalin-2-yl)oxy]phenoxy}-N-ethylacetamide]",≥ 100,4.6,≥ 100,25,,,
"CNC(=O)Cc1ccc(Oc2nc3ccc(Cl)cc3s2)cc1O [NZ-389, 2-{4-[(6-chloro-1,3-benzothiazol-2-yl)oxy]-2-hydroxyphenyl}-N-methylacetamide]",≥ 100,0.21,≥ 100,1.2 to 2.2,,,
"CNC(=O)Cc1ccc(Oc2nc3ccc(F)cc3s2)cc1 [NZ-385, 2-{4-[(6-fluoro-1,3-benzothiazol-2-yl)oxy]phenyl}-N-methylacetamide]",≥ 100,0.87,≥ 100,3,,,
"CC(C)ONC(=O)COc1ccc(Oc2cnc3cc(Cl)ccc3n2)cc1 [NZ-326, 2-{4-[(6-chloroquinoxalin-2-yl)oxy]phenoxy}-N-(propan-2-yloxy)acetamide]",≥ 100,2.5 to 4.4,≥ 100,3,,,
"CC(C)(C)OC(=O)Nc1ccc(Oc2cnc3cc(Cl)ccc3n2)cc1 [NZ-321, tert-butyl N-{4-[(6-chloroquinoxalin-2-yl)oxy]phenyl}carbamate]",≥ 100,20,≥ 100,50,,,
"CC(C(=O)N1CCN(C)CC1)c1ccc(Oc2nc3ccc(Cl)cc3s2)cc1 (stereo not shown) [NZ-366, 2-{4-[(6-chloro-1,3-benzothiazol-2-yl)oxy]phenyl}-1-(4-methylpiperazin-1-yl)propan-1-one]",25 to 50,4.9,25 to 50,0.56,,,
"COC(=O)Cn1ccc(Oc2nc3ccc(Cl)cc3s2)cc1=O [NZ-396, methyl 2-{4-[(6-chloro-1,3-benzothiazol-2-yl)oxy]-2-oxo-1,2-dihydropyridin-1-yl}acetate]",≥ 100,11.3,≥ 100,6.19 to 8.6,,,
"CC(C)NC(=O)Nc1ccc(Oc2nc3ccc(C(F)(F)F)cc3s2)cc1 [NZ-379, 3-(propan-2-yl)-1-(4-{[6-(trifluoromethyl)-1,3-benzothiazol-2-yl]oxy}phenyl)urea]",≥ 100,,≥ 100,,Not Active,Not Active,
"CC(C(=O)NCCO)c1ccc(Oc2nc3ccc(Cl)cc3s2)cc1 (stereo not shown) [NZ-370, 2-{4-[(6-chloro-1,3-benzothiazol-2-yl)oxy]phenyl}-N-(2-hydroxyethyl)propanamide]",≥ 100,1,≥ 100,1.8,,,
"CC(C)NC(=O)COc1ccc(Oc2cnc3cc(Cl)ccc3n2)cc1 [NZ-307, 2-{4-[(6-chloroquinoxalin-2-yl)oxy]phenoxy}-N-(propan-2-yl)acetamide]",≥ 100,2.5,≥ 100,3,,,
"COc1ccc2nc(Oc3ccc(C(C)C(=O)O)cc3)sc2c1 (stereo not shown) [NZ-334, 2-{4-[(6-methoxy-1,3-benzothiazol-2-yl)oxy]phenyl}propanoic acid]",≥ 100,10,≥ 100,25,,,
"CON(C)C(=O)COc1ccc(Oc2cnc3cc(Cl)ccc3n2)cc1 [NZ-290, 2-{4-[(6-chloroquinoxalin-2-yl)oxy]phenoxy}-N-methoxy-N-methylacetamide]",≥ 100,2.5,≥ 100,1.5,,,
"CONC(=O)COc1ccc(Oc2cnc3cc(Cl)ccc3n2)cc1 [NZ-274, 2-{4-[(6-chloroquinoxalin-2-yl)oxy]phenoxy}-N-methoxyacetamide]",≥ 100,3.7,≥ 100,0.173,,,
"CC(C(=O)N(C)C)c1ccc(Oc2nc3ccc(Cl)cc3s2)cc1 (stereo not shown) [NZ-368, 2-{4-[(6-chloro-1,3-benzothiazol-2-yl)oxy]phenyl}-N,N-dimethylpropanamide]",25 to 50,3.6,≥ 100,2.07,,,
"CNC(=O)C(C)c1ccc(Oc2nc3cc(F)c(F)cc3s2)cc1 (stereo not shown) [NZ-387, 2-{4-[(5,6-difluoro-1,3-benzothiazol-2-yl)oxy]phenyl}-N-methylpropanamide]",≥ 100,0.26,≥ 100,2.7 to 8,,,
"CC(C)NC(=O)Nc1ccc(Oc2nc3cc(Cl)ccc3s2)cc1 [NZ-376, 1-{4-[(5-chloro-1,3-benzothiazol-2-yl)oxy]phenyl}-3-(propan-2-yl)urea]",≥ 100,0.874,≥ 100,,Not Active,,
"COC(=O)Cc1ccc(Oc2nc3cc(F)c(F)cc3s2)cc1 [NZ-398, methyl 2-{4-[(5,6-difluoro-1,3-benzothiazol-2-yl)oxy]phenyl}acetate]",≥ 100,3.6,≥ 100,0.89,,,
"CC(C)NC(=O)Nc1ccc(Oc2nc3ccc(CO)cc3s2)cc1 [NZ-381, 1-(4-{[6-(hydroxymethyl)-1,3-benzothiazol-2-yl]oxy}phenyl)-3-(propan-2-yl)urea]",≥ 100,,≥ 100,7.3,,Not Active,
"CNC(=O)Cc1ccc(Oc2nc3cc(F)c(F)cc3s2)cc1 [NZ-400, 2-{4-[(5,6-difluoro-1,3-benzothiazol-2-yl)oxy]phenyl}-N-methylacetamide]",≥ 100,0.21,≥ 100,0.61,,,
"CNC(=O)Cc1ccc(Oc2nc3cc(F)c(F)cc3s2)cc1O [NZ-401, 2-{4-[(5,6-difluoro-1,3-benzothiazol-2-yl)oxy]-2-hydroxyphenyl}-N-methylacetamide]",≥ 100,0.12,≥ 100,0.54,,,
"CC(C(=O)N1CCOCC1)c1ccc(Oc2nc3ccc(Cl)cc3s2)cc1 (stereo not shown) [NZ-365, 2-{4-[(6-chloro-1,3-benzothiazol-2-yl)oxy]phenyl}-1-(morpholin-4-yl)propan-1-one]",50 to 100,6.2,≥ 100,18.9,,,
"O=C(O)C(O)c1ccc(Oc2nc3ccc(Cl)cc3s2)cc1 (stereo not shown) [NZ-337, 2-{4-[(6-chloro-1,3-benzothiazol-2-yl)oxy]phenyl}-2-hydroxyacetic acid]",≥ 100,2.3,≥ 100,25,,,
"CC(C)NC(=O)Nc1ccc(Oc2nc3ccc(O)cc3s2)cc1 [NZ-362, 1-{4-[(6-hydroxy-1,3-benzothiazol-2-yl)oxy]phenyl}-3-(propan-2-yl)urea]",≥ 100,,≥ 100,6.5,,,20
"CCOC(=O)c1ccc2nc(Oc3ccc(NC(=O)NC(C)C)cc3)sc2c1 [NZ-378, ethyl 2-(4-{[(propan-2-yl)carbamoyl]amino}phenoxy)-1,3-benzothiazole-6-carboxylate]",≥ 100,,≥ 100,2.2,,Not Active,
